We go through 2 molecules from BindingDB's records for doi:10.1002/cbic.201600655 (University At Albany, 2017).

The target of this experiment is NAD-dependent protein deacylase sirtuin-6 (Homo sapiens, UniProt Q8N6T7). Put plainly: Fluorimetric Assay. How it is done:
Inhibitory constants (Ki) and IC50 values were determined under saturating substrate conditions by using a fluorimetric assay (components were purchased separately). […] Sirtuin deacetylation of the substrate renders the fluorophore-substrate bond susceptible to treatment with […]. Trypsin cleavage releases the fluorophore, resulting in an increase in fluorescence. Fluorescence intensity was measured on a Synergy HT Multi-Mode microplate fluorescence reader.

Chain of NAD-dependent protein deacylase sirtuin-6 (Q8N6T7 whole entry): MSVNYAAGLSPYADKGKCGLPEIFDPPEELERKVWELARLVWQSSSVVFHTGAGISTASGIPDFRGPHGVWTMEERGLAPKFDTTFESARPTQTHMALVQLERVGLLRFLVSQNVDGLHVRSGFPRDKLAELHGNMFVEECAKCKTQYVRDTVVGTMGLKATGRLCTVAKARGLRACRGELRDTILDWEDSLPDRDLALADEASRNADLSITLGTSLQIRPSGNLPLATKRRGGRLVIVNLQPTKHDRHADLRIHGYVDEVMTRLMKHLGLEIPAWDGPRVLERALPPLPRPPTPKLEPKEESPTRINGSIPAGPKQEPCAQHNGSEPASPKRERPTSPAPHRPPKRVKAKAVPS

For the molecule `O=C(O)c1cnccn1`, the 50% inhibitory concentration (IC50) (commonly the concentration that gives 50% inhibition) worked out at 927 µM.

Regarding `NC(=O)c1cnccn1` [Pyrazinamide], the IC50 is 417 µM.
